From the NIST ThermoML archive (doi:10.1016/j.fluid.2019.112274)

Details: Liquid; for thermal diffusivity: Dynamic light scattering; for speed of sound: Brillouin light scattering

CCCCCCCCCC(=O)OCC [ethyl decanoate]
Details	speed of sound [m/s]	thermal diffusivity [m2/s]
295.34 K, 5000 kPa	–	8.46e-08
295.57 K, 10000 kPa	–	8.67e-08
295.72 K, 7000 kPa	–	8.54e-08
296.25 K, 3000 kPa	–	8.37e-08
296.31 K, 100 kPa	–	8.23e-08
300.71 K, 7000 kPa	1302.7	–
300.78 K, 100 kPa	1283.2	–
300.78 K, 10000 kPa	1329.5	–
300.79 K, 3000 kPa	1290.7	–
300.81 K, 5000 kPa	1295.7	–
310.13 K, 10000 kPa	–	8.5e-08
310.16 K, 5000 kPa	–	8.28e-08
310.19 K, 7000 kPa	–	8.37e-08
310.26 K, 3000 kPa	–	8.19e-08
310.29 K, 100 kPa	–	8.05e-08
310.58 K, 10000 kPa	1301.3	–
310.85 K, 100 kPa	1248.4	–
310.85 K, 5000 kPa	1265	–
310.93 K, 7000 kPa	1271.5	–
311.01 K, 3000 kPa	1258.4	–
320.9 K, 100 kPa	1213.6	–
320.91 K, 5000 kPa	1233.3	–
320.94 K, 3000 kPa	1226.4	–
320.98 K, 7000 kPa	1241.3	–
321 K, 10000 kPa	1269.6	–
324.97 K, 5000 kPa	–	8.07e-08
325.08 K, 7000 kPa	–	8.16e-08
325.11 K, 3000 kPa	–	7.98e-08
325.16 K, 10000 kPa	–	8.29e-08
325.23 K, 100 kPa	–	7.85e-08
330.76 K, 3000 kPa	1192.9	–
330.77 K, 7000 kPa	1210.4	–
330.79 K, 10000 kPa	1239.7	–
330.81 K, 100 kPa	1178.4	–
330.87 K, 5000 kPa	1199.5	–
339.12 K, 7000 kPa	1183	–
339.89 K, 10000 kPa	–	8.08e-08
340.05 K, 7000 kPa	–	7.95e-08
340.11 K, 5000 kPa	–	7.86e-08
340.16 K, 3000 kPa	–	7.78e-08
340.18 K, 100 kPa	–	7.64e-08
340.24 K, 100 kPa	1144.5	–
340.56 K, 10000 kPa	1209.4	–
340.76 K, 5000 kPa	1166.4	–
340.79 K, 3000 kPa	1157.6	–
350.12 K, 10000 kPa	1179.1	–
350.77 K, 3000 kPa	1124.1	–
350.89 K, 7000 kPa	1145.9	–
350.97 K, 5000 kPa	1133.3	–
350.99 K, 100 kPa	1106.3	–
355.14 K, 5000 kPa	–	7.65e-08
355.19 K, 100 kPa	–	7.44e-08
355.22 K, 7000 kPa	–	7.74e-08
355.25 K, 10000 kPa	–	7.86e-08
355.26 K, 3000 kPa	–	7.57e-08
360.27 K, 10000 kPa	1145.7	–
360.32 K, 100 kPa	1073.2	–
360.51 K, 5000 kPa	1102.5	–
360.55 K, 7000 kPa	1115.4	–
360.75 K, 3000 kPa	1090.9	–
369.47 K, 10000 kPa	1115.6	–
369.75 K, 3000 kPa	–	7.34e-08
369.77 K, 7000 kPa	–	7.5e-08
369.78 K, 5000 kPa	–	7.42e-08
369.78 K, 10000 kPa	–	7.63e-08
369.85 K, 100 kPa	–	7.21e-08
371.22 K, 100 kPa	1035.6	–
371.22 K, 7000 kPa	1081.7	–
371.31 K, 5000 kPa	1068.1	–
371.46 K, 3000 kPa	1054.6	–
379.56 K, 7000 kPa	1055.4	–
379.62 K, 5000 kPa	1040.4	–
379.78 K, 100 kPa	1005.8	–
379.78 K, 3000 kPa	1026.4	–
383.22 K, 10000 kPa	1069.6	–
384.3 K, 3000 kPa	–	7.11e-08
384.31 K, 100 kPa	–	6.99e-08
384.31 K, 7000 kPa	–	7.28e-08
384.32 K, 5000 kPa	–	7.2e-08
384.32 K, 10000 kPa	–	7.4e-08
389.06 K, 100 kPa	973.3	–
389.19 K, 5000 kPa	1010.9	–
389.22 K, 7000 kPa	1025	–
389.32 K, 3000 kPa	996.7	–
392.15 K, 10000 kPa	1042.5	–
399.55 K, 10000 kPa	–	7.23e-08
399.56 K, 3000 kPa	–	6.95e-08
399.57 K, 7000 kPa	–	7.11e-08
399.6 K, 100 kPa	–	6.82e-08
399.6 K, 5000 kPa	–	7.03e-08
400.76 K, 100 kPa	933.3	–
400.79 K, 3000 kPa	958.4	–
400.81 K, 7000 kPa	989.3	–
400.9 K, 5000 kPa	973.6	–
401.26 K, 10000 kPa	1015	–
408.81 K, 3000 kPa	933.4	–
409.55 K, 5000 kPa	946.8	–
410.3 K, 7000 kPa	960.7	–
410.85 K, 100 kPa	900.2	–
411.61 K, 10000 kPa	983.4	–
414.33 K, 10000 kPa	–	7.01e-08
414.35 K, 3000 kPa	–	6.73e-08
414.36 K, 7000 kPa	–	6.89e-08
414.41 K, 5000 kPa	–	6.81e-08
414.43 K, 100 kPa	–	6.61e-08
419.6 K, 100 kPa	871.4	–
419.67 K, 3000 kPa	899.1	–
419.68 K, 5000 kPa	915	–
419.73 K, 7000 kPa	932.2	–
423.29 K, 10000 kPa	949.4	–
429.05 K, 5000 kPa	–	6.58e-08
429.1 K, 3000 kPa	–	6.5e-08
429.14 K, 100 kPa	–	6.39e-08
429.25 K, 10000 kPa	–	6.78e-08
429.56 K, 100 kPa	839.8	–
429.56 K, 3000 kPa	868.5	–
429.6 K, 5000 kPa	884.8	–
430.45 K, 7000 kPa	901.1	–
432.01 K, 10000 kPa	925	–
439.2 K, 10000 kPa	903.9	–
439.28 K, 100 kPa	809.5	–
439.85 K, 3000 kPa	836.6	–
440.02 K, 5000 kPa	854.6	–
440.37 K, 7000 kPa	871.6	–
444.19 K, 100 kPa	–	6.21e-08
444.35 K, 5000 kPa	–	6.4e-08
444.38 K, 3000 kPa	–	6.32e-08
444.46 K, 10000 kPa	–	6.59e-08
448.51 K, 10000 kPa	878.1	–
449.52 K, 7000 kPa	845.4	–
450.25 K, 3000 kPa	805.8	–
450.25 K, 5000 kPa	825.6	–
451.03 K, 100 kPa	773.3	–
458.86 K, 5000 kPa	801.3	–
459.76 K, 100 kPa	–	5.97e-08
459.85 K, 3000 kPa	778.6	–
459.9 K, 3000 kPa	–	6.09e-08
460 K, 10000 kPa	–	6.34e-08
460.01 K, 7000 kPa	–	6.23e-08
460.11 K, 100 kPa	746.8	–
460.12 K, 5000 kPa	–	6.16e-08
460.2 K, 7000 kPa	816	–
463.71 K, 10000 kPa	837.3	–
469.25 K, 3000 kPa	752.4	–
469.28 K, 5000 kPa	771.9	–
469.32 K, 7000 kPa	792	–
469.45 K, 100 kPa	719.5	–
470.42 K, 10000 kPa	819.1	–
475.26 K, 3000 kPa	–	5.84e-08
475.27 K, 100 kPa	–	5.74e-08
475.31 K, 7000 kPa	–	5.99e-08
475.31 K, 10000 kPa	–	6.1e-08
475.35 K, 5000 kPa	–	5.92e-08
479.25 K, 100 kPa	691.6	–
479.29 K, 3000 kPa	724.5	–
479.47 K, 7000 kPa	764.5	–
479.9 K, 5000 kPa	743.2	–
481.5 K, 10000 kPa	791.1	–
488.69 K, 7000 kPa	740.9	–
489.53 K, 3000 kPa	–	5.62e-08
489.54 K, 5000 kPa	–	5.69e-08
489.54 K, 7000 kPa	–	5.76e-08
489.54 K, 10000 kPa	–	5.87e-08
489.57 K, 100 kPa	–	5.52e-08
490.41 K, 5000 kPa	715.7	–
490.81 K, 3000 kPa	693.8	–
492.02 K, 10000 kPa	764.5	–
499.48 K, 10000 kPa	745.9	–
500.41 K, 5000 kPa	690.3	–
500.55 K, 7000 kPa	711.6	–
500.76 K, 3000 kPa	667.8	–
504.58 K, 5000 kPa	–	5.45e-08
504.77 K, 7000 kPa	–	5.52e-08
504.79 K, 3000 kPa	–	5.39e-08
504.94 K, 10000 kPa	–	5.62e-08
505.38 K, 100 kPa	–	5.28e-08
509.33 K, 10000 kPa	722.7	–
510.27 K, 5000 kPa	666.3	–
510.41 K, 7000 kPa	686.9	–
510.65 K, 3000 kPa	642.8	–
519.26 K, 3000 kPa	–	5.2e-08
519.36 K, 5000 kPa	–	5.26e-08
519.41 K, 7000 kPa	–	5.33e-08
519.6 K, 10000 kPa	–	5.43e-08
520.04 K, 10000 kPa	696.8	–
520.19 K, 3000 kPa	619.7	–
520.25 K, 5000 kPa	642.5	–
520.27 K, 7000 kPa	664.6	–
529.04 K, 10000 kPa	678	–
529.91 K, 5000 kPa	619.5	–
530.11 K, 7000 kPa	641.3	–
530.36 K, 3000 kPa	595.4	–
534.46 K, 5000 kPa	–	5.06e-08
534.75 K, 7000 kPa	–	5.12e-08
534.77 K, 3000 kPa	–	5e-08
535.01 K, 10000 kPa	–	5.22e-08
540.06 K, 7000 kPa	618.1	–
540.09 K, 10000 kPa	651.8	–
540.12 K, 5000 kPa	595.3	–
540.66 K, 3000 kPa	570.8	–
548.94 K, 3000 kPa	551.9	–
549.74 K, 5000 kPa	574.5	–
549.76 K, 3000 kPa	–	4.77e-08
549.87 K, 10000 kPa	630.6	–
549.96 K, 5000 kPa	–	4.84e-08
549.97 K, 7000 kPa	–	4.9e-08
549.99 K, 7000 kPa	596.7	–
550.17 K, 10000 kPa	–	4.99e-08
558.46 K, 3000 kPa	529.8	–
559.93 K, 5000 kPa	551.9	–
561 K, 10000 kPa	607	–
562.07 K, 7000 kPa	570.2	–
565.49 K, 10000 kPa	–	4.76e-08
565.86 K, 5000 kPa	–	4.61e-08
565.87 K, 7000 kPa	–	4.67e-08
566.27 K, 3000 kPa	–	4.55e-08
